{"source": "patent US9029080B2", "about": "“Screening assay for insecticides” (priority 2008, dated 2015)", "key": {"ShaI/KChIP": {"biological_target": "T1, ShaI/KChIP (Drosophila melanogaster, UniProt P17971)", "T1 construct": "expressed in transfected cells; subclone 18-13-20", "T1 sequence (P17971 with tags, fused parts or gaps isoform P17971-1)": "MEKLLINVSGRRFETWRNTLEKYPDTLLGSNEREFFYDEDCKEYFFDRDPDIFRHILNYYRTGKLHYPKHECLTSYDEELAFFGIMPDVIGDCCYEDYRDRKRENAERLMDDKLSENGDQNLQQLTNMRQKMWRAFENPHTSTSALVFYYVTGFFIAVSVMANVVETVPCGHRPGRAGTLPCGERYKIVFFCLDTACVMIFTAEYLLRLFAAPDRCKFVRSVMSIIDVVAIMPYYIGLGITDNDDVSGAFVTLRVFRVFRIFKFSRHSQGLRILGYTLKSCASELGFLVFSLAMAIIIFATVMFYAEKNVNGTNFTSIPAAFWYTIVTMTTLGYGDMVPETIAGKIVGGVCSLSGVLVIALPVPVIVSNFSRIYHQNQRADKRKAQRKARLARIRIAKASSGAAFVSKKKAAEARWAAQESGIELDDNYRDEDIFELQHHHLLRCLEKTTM", "experiment": "ShaI/KChIP FLIPR membrane potential assay, KCl depolarization", "type": "cell-based", "description": "This assay uses two fluid additions to permit the detection of activators and antagonists in a single experiment (FIG. 17). In screening, test compounds are added in the first addition and allowed to incubate for three minutes. An activating dose of KCl is then introduced in the second addition and the fluorescence read for an additional three minutes. Controls are run for both additions.\nCells were dispensed in a 50 μl volume containing 7,500 cells into 384-well TC clear/black assay plates (Greiner 781091) using a Multidrop 384 dispenser, incubated at ambient temperature for one hour (to reduce edge effects), and incubated overnight at 37° C./5% CO2. The cells were assayed 18-24 hours after seeding, at which point they were just approaching confluency in the wells. Culture medium was removed by flicking and tapping it out of the plate, and cells were loaded with 20 ul/well of 1× blue membrane potential dye in assay buffer for 30 minutes at 25° C. After 30 minutes the assay plate was placed into the FLIPR and run using a two-addition protocol. The first addition (5×, 5 ul) contained 2.5% DMSO in assay buffer. The pipetting height was set at 15 and the speed 20. The plate was read for three minutes after this addition. The second addition (2×, 25 ul) was either assay buffer or 120 mM isometrically-substituted KCl (i.e., KCl substituted for NaCl on a 1:1 molar basis). The height was 20 and the speed 25. Aspirate speeds were set at the lowest values and no hold or expel volumes applied. The plate was read for an additional three minutes after the second addition. The exported statistics were typically configured as stat1=average of 190-200 (the interval just before the first addition) and stat2=maximum of 260-maximum allowed. Subtract bias was set at 1 and negative control correction was OFF. Z′ statistics (an index of “screenability”, Z′>0.5=single-pass screen) were calculated using the following formula: Z′=1−((3σmax+3σmin)/(Iμmax−μminI)).\nFIG. 32: BIOMOL compounds—primary screening data. ScreenWorks screenshots showing primary FLIPR data for BIOMOL compound screening. ShaI/KChIP 20 cells were plated at 7500 cells/well in 384-well assay plates and screened the following day. Culture medium was removed by flicking the plates and the cells were loaded with 20 ul 1× membrane potential dye per well for 0.5 hours at 25° C. A two-addition protocol was used. The first addition was 5 ul 5× control or compound in 2.5% DMSO in assay buffer (0.5% [final]) read for 180 sec, and the second addition was 25 ul 2× control or 120 mM isometrically-substituted KCl in assay buffer (0-60 mM [final]) read for an additional 180 sec. Statistics were exported using the average of reads 180-200 and the maximum of reads 260-maximum allowed. Subtract bias was set at 1 and negative control correction was OFF. Control columns ½ and 23/24 are described starting on pg. 53 of this document. Inset: Screenshot of group averages for the control and compound wells highlighted in the primary data screen.\nThe 3222 unique members of the BioFocus SoftFocus Ion Channel Libraries #1-4 (#SF101-04) were screened in 384-well four-point mode against ShaI/KChIP at 10 uM in a combined activator and antagonist screen. The same FLIPR protocol was used as for the BIOMOL screening and was carried out over four non-consecutive days. The following compound preparation protocol was used to prepare screening plates: Briefly, ShaI-KChIP cells were seeded in 384-well plates at 7500 cells/well in 50 ul and incubated overnight at 37° C./5% CO2. The next day, culture medium was removed, 20 ul of 1×FMP dye was added, and the cell plate was incubated at 27° C. for 30 minutes. After incubation, the cell plate was placed into the Tetra and a two-addition protocol was used. The 1st addition was 5 μl of 5× compound (50 μM) with a three minute read. […] The 2nd addition was 25 ul of 2× activation buffer (120 mM isometric KCl substitution for NaCl) and read for an additional two minutes. […]"}, "[1]": {"biological_target": "T2, Shaker channel plus H-kvβ A subunit (Drosophila melanogaster, UniProt P08510, INS512V)", "T2 construct": "expressed in transfected cells; host or cells: CHO-K1", "type": "cell-based", "description": "In order to detect the membrane depolarization elicited by KCl injection, the Membrane Potential sensitive dye was used both for FLIPR384 and […] experiments. Cells were analyzed in 384 clear-bottom black MPTs (MATRIX cat. #4324) by seeding 5000, 7500, 10000 cells/well 24 hrs before experiment. Plates were incubated with 40 μl/w of 0.625× membrane potential dye for 45-60 minutes at 37° C. or room temperature and measured at FLIPR instrument by injecting 10 μl/w of 5× antagonist (in the presence of 0.5% DMSO, as indicated) followed by 3-5 minutes fluorescence reading; then a second injection of 25 μl/w of 3× KCl in Standard Tyrode solution) was performed and fluorescence measured for further 3-4 minutes. In experiments with a single injection (agonist), plates were incubated with 20 μl/w of 1× dye and injected with 20 μl/w of 2× KCl in Standard Tyrode solution.\nKinetic data obtained from different well replicates were analyzed with FLIPR, Excel and Spotfire software, by calculating the Integral or Maximum-Minimum RFU values after the injection; the obtained means and standard deviations were utilized to create sigmoidal dose-response fits by GraphPad PRISM® or Spotfire software and to calculate EC50-IC50 values and Z′ factors.\nFIG. 42. […]"}, "ShaI_delN": {"biological_target": "T3, ShaI_delN (Drosophila melanogaster, UniProt P17971)", "T3 construct": "expressed in transfected cells; host or cells: CHO", "experiment": "ShaI_delN clonal lines, FLIPR blue membrane potential dye, KCl depolarization", "type": "cell-based", "conditions": "both the ShaI_delN clonal lines and the control pcDNA3 cell line, FLIPR", "description": "ShaI_DelN C10 and C15 were tested for function on the FLIPR using the Molecular Devices blue membrane potential dye. The cells were seeded at 60K cells/well in 96-well Costar plates in complete media and assayed for function at 24 hrs. Depolarization with 15-60 mM KCl caused a 2-2.8 fold higher activity in the clonal line than the pcDNA control cell line (FIG. 5). Clone 10 had slightly higher activity than clone 15.\nFIG. 5: ShaI_DelN clones tested on FLIPR with KCl depolarization. We also tested some known K-channel blockers on channel activity on the FLIPR (FIG. 6). […] The ShaI_delN clonal cell lines lost their GFP expression and assay window with cell passage. At passage 12, only 10-15% of the cell population was GFP positive.\nThe effects of barium (Ba2+) on ShaI_delN function were tested. Barium is known to inhibit some open rectifier and inward rectifier K-channel activities. Cells were dye loaded in the presence of BaCl2 for 1 hr at RT and assayed on the FLIPR using KCl depolarization for channel activation."}, "SK2 channel": {"biological_target": "SK2 channel (Homo sapiens, UniProt Q9H2S1)", "conditions": "patch clamp; cited from earlier work"}, "[2]": {"biological_target": "T4, octopamine receptor (OctR, CG6919 dmOa2) (Drosophila melanogaster, UniProt Q9VCZ3)", "T4 construct": "expressed in transfected cells; host or cells: CHO stably expressing G-alpha-16", "experiment": "OctR clone 55 FLIPR Fluo-4 calcium assay", "type": "cell-based", "conditions": "clone 55, same as published cAMP data", "description": "FIG. 62. Cells were plated at 10K/well in 384 well plates and allowed to incubate overnight at […]. The cells were assayed 18-24 hours after seeding. Media was removed and cells were dye loaded for 60 minutes with 2 μM Fluo-4. After 1 hour, dye was removed and 20 μl of buffer added to the plate and placed into FLIPR. The 1st addition was antagonist dose response curves and the 2nd addition was agonist dose response curves. Antagonists were challenged with 100 nM Octopamine. In addition, these compounds were tested in the parental cell line CHO-Galpha16.\nCells were plated at 10,000 cells/well in 50 μl into 384-well black TC plates and allowed to incubate overnight at 37° C./5% CO2. The cells were assayed 18-24 hours after seeding. Culture medium was removed by flicking and cells were dye loaded for 60 minutes with 20 μl of 2 μM Fluo-4 in assay buffer plus probenecid at 25° C. After one hour dye was removed by flicking and 20 μL of assay buffer was added, wait 5 min prior to placing into the FLIPR and run using a two-addition protocol. The first addition (20 ul, 2×) was 0.5% DMSO final in assay buffer. The second addition (20 ul, 3×) was either assay buffer or 100 nM octopamine final."}}, "note": "Read-outs that look alike come from different tables or passages of the source."}
{"smiles": "[Cl-].[K+]", "note": "[KCl, reference compound]", "values": [{"measurement": "EC50", "setting": "ShaI/KChIP; ShaI/KChIP 18-13 cells, isometrically-substituted KCl, fixed top response, read-out: EC50", "result": 30, "unit": "mM"}, {"measurement": "EC50", "setting": "ShaI/KChIP; ShaI/KChIP 20 cells, three days, standard deviation 5 mM, read-out: EC50 mean", "result": 36, "unit": "mM"}, {"measurement": "Activator concentration (~EC80)", "setting": "[1]; in Activation buffer, high-throughput screening parameter", "result": "~50", "unit": "mM"}]}
{"smiles": "COC(=O)C1=C(C)NC(C)=C(C(=O)OCCN(C)Cc2ccccc2)C1c1cccc([N+](=O)[O-])c1", "note": "(stereo not drawn) [nicardipine]", "values": [{"measurement": "inhibition of KCl depolarization", "setting": "ShaI_delN", "result": "dose dependent inhibition"}]}
{"smiles": "O=C(NCC1CCCCN1)c1cc(OCC(F)(F)F)ccc1OCC(F)(F)F", "note": "(stereo not drawn) [Flecainide]", "values": [{"measurement": "inhibition of KCl depolarization", "setting": "ShaI_delN", "result": "did not show any inhibition"}]}
{"smiles": "CN(C)CCC=C1c2ccccc2CCc2ccccc21", "note": "[amitriptyline]", "values": [{"measurement": "block of SK2 channel currents", "setting": "SK2 channel", "result": "micro-molar affinity"}]}
{"smiles": "COC(=O)C1=C(C)NC(C)=C([N+](=O)[O-])C1c1ccccc1C(F)(F)F", "note": "(stereo not drawn) [Bay K8644]", "values": [{"measurement": "inhibition of KCl depolarization", "setting": "ShaI_delN", "result": "dose dependent inhibition"}]}
{"smiles": "O=C(O)c1cccnc1Nc1cccc(C(F)(F)F)c1", "note": "[niflumic acid]", "values": [{"measurement": "inhibition of KCl depolarization", "setting": "ShaI_delN", "result": "dose dependent inhibition"}]}
{"smiles": "C=C[C@H]1CN2CC[C@@H]1CC2[C@@H](O)c1ccnc2ccc(OC)cc12", "note": "(stereo in doubt) [quinidine, (2-ethenyl-4-azabicyclo[2.2.2]oct-5-yl)-(6-methoxyquinolin-4-yl)-methanol]", "values": [{"measurement": "inhibition of KCl depolarization", "setting": "ShaI_delN", "result": "dose dependent inhibition"}]}
{"smiles": "c1ccc2c(CC3=NCCN3)cccc2c1", "note": "[naphazoline]", "values": [{"measurement": "rank order of potency (agonists)", "setting": "[2]", "result": "naphazoline>octopamine>amitraz>clonidine>tolazoline"}]}
{"smiles": "CC[N+](CC)(CC)CC", "note": "[TEA, Tetraethylammonium]", "values": [{"measurement": "effect on KCl stimulation", "setting": "[1]", "result": "blocking effect is visible"}]}
{"smiles": "Cc1ccc(/N=C/N(C)/C=N/c2ccc(C)cc2C)c(C)c1", "note": "[amitraz]", "values": [{"measurement": "rank order of potency (agonists)", "setting": "[2]", "result": "naphazoline>octopamine>amitraz>clonidine>tolazoline"}]}
{"smiles": "Clc1cccc(Cl)c1N=C1NCCN1", "note": "[clonidine]", "values": [{"measurement": "rank order of potency (agonists)", "setting": "[2]", "result": "naphazoline>octopamine>amitraz>clonidine>tolazoline"}]}
{"smiles": "Nc1c2c(nc3ccccc13)CCCC2", "note": "[tacrine]", "values": [{"measurement": "block of SK2 channel currents", "setting": "SK2 channel", "result": "micro-molar affinity"}]}
{"smiles": "NC(=O)N1c2ccccc2C=Cc2ccccc21", "note": "[carbamazepine]", "values": [{"measurement": "block of SK2 channel currents", "setting": "SK2 channel", "result": "micro-molar affinity"}]}
